Measured values reported in patent publication US11969428B2, “Methods and pharmaceutical compositions for treating lymphoid malignancy” (priority 2011, dated 2024).

Experiments:
Experiment in all cases: Ambit KinomeScan screening
Format in all cases: binding
Conditions in all cases: CAL-130 10 μM
CLK4 = biological target: T1, CLK4 (Homo sapiens, UniProt Q9HAZ1)
T1 construct: purchased Ambit (KinomeScan screening service)
Summary of the method: (§1)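 Tagged kinases are exposed to an immobilized bait ligand with CAL-130 (10 μM) present. Kinase binding to the bait is then quantified relative to control. Results are given as % of control, where over 35% is scored as no hit.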

ERK4 = biological target: T2, ERK4 (Homo sapiens, UniProt P31152)
T2 construct: unspecified tag ("tagged kinases"); purchased Ambit (KinomeScan screening service)
Summary of the method: as §1

PDGFRA = biological target: T3, PDGFRA (Homo sapiens, UniProt P16234)
T3 construct: unspecified tag ('tagged kinases'); purchased Ambit (KinomeScan screening)
Summary of the method: as §1

CDKL3 = biological target: T4, CDKL3 (Homo sapiens, UniProt Q8IVW4)
T4 construct: purchased Ambit (KinomeScan screening service)
Summary of the method: as §1

RAF1 = biological target: T5, RAF1 (Homo sapiens, UniProt P04049)
T5 construct: tag (kind not specified); purchased Ambit (KinomeScan screening service)
Summary of the method: as §1

MAST1 = biological target: T6, MAST1 (Homo sapiens, UniProt Q9Y2H9)
T6 construct: purchased Ambit (KinomeScan screening)
Summary of the method: as §1

DYRK1A = biological target: T7, DYRK1A (Homo sapiens, UniProt Q13627)
T7 construct: unspecified tag ("tagged kinases"); purchased Ambit (KinomeScan screening service)
Summary of the method: as §1

ADCK3 = biological target: T8, ADCK3 (Homo sapiens, UniProt Q8NI60)
T8 construct: purchased Ambit (KinomeScan screening)
Summary of the method: as §1

PIM3 = biological target: T9, PIM3 (Homo sapiens, UniProt Q86V86)
T9 construct: unspecified tag; purchased Ambit (KinomeScan screening panel)
Summary of the method: as §1

ROCK2 = biological target: T10, ROCK2 (Homo sapiens, UniProt O75116)
T10 construct: unspecified tag (tagged kinase); purchased Ambit (KinomeScan screening)
Summary of the method: as §1

MRCKA = biological target: T11, MRCKA (Homo sapiens, UniProt Q5VT25)
T11 construct: unspecified tag ('tagged kinases'); purchased Ambit (KinomeScan screening)
Summary of the method: as §1

TESK1 = biological target: T12, TESK1 (Homo sapiens, UniProt Q15569)
T12 construct: unspecified tag (tagged kinase); purchased Ambit (KinomeScan screening)
Summary of the method: as §1

MEK2 = biological target: T13, MEK2 (Homo sapiens, UniProt P36507)
T13 construct: purchased Ambit (KinomeScan screening)
Summary of the method: as §1

MYLK = biological target: T14, MYLK (Homo sapiens, UniProt Q15746)
T14 construct: unspecified tag; purchased Ambit (KinomeScan screening panel)
Summary of the method: as §1

GRK7 = biological target: T15, GRK7 (Homo sapiens, UniProt Q8WTQ7)
T15 construct: unspecified tag ('tagged kinases'); purchased Ambit (KinomeScan screening service)
Summary of the method: as §1

FGFR4 = biological target: T16, FGFR4 (Homo sapiens, UniProt P22455)
T16 construct: unspecified tag; purchased Ambit (KinomeScan screening service)
Summary of the method: as §1

CAMK4 = biological target: T17, CAMK4 (Homo sapiens, UniProt Q16566)
T17 construct: purchased Ambit (KinomeScan screening)
Summary of the method: as §1

p38-γ = biological target: T18, p38-γ (Homo sapiens, UniProt P53778)
T18 construct: purchased Ambit (KinomeScan screening service)
Summary of the method: as §1

EGFR(L858R, T790M) = biological target: T19, EGFR(L858R, T790M) (Homo sapiens, UniProt P00533, L858R/T790M)
T19 construct: unspecified tag; purchased Ambit (KinomeScan screening service)
Summary of the method: as §1

MST2 = biological target: T20, MST2 (Homo sapiens, UniProt Q13188)
T20 construct: unspecified tag ('tagged kinases'); purchased Ambit (KinomeScan screening)
Summary of the method: as §1

DLK = biological target: T21, DLK (Homo sapiens, UniProt Q12852)
T21 construct: unspecified tag ("tagged kinases"); purchased Ambit (KinomeScan screening service)
Summary of the method: as §1

MET = biological target: T22, MET (Homo sapiens, UniProt P08581)
T22 construct: purchased Ambit (KinomeScan screening)
Summary of the method: as §1

FGFR3 = biological target: T23, FGFR3 (Homo sapiens, UniProt P22607)
T23 construct: unspecified tag; purchased Ambit (KinomeScan screening service)
Summary of the method: as §1

CAMK2D = biological target: T24, CAMK2D (Homo sapiens, UniProt Q13557)
T24 construct: purchased Ambit (KinomeScan screening)
Summary of the method: as §1

IKK-α = biological target: T25, IKK-α (Homo sapiens, UniProt O15111)
T25 construct: Ambit (KinomeScan screening)
Summary of the method: as §1

CLK3 = biological target: T26, CLK3 (Homo sapiens, UniProt P49761)
T26 construct: purchased Ambit (KinomeScan screening service)
Summary of the method: as §1

PAK7 = biological target: T27, PAK7 (Homo sapiens, UniProt Q9P286)
T27 construct: unspecified tag ('tagged kinases'); purchased Ambit (KinomeScan screening)
Summary of the method: as §1

PDGFRB = biological target: T28, PDGFRB (Homo sapiens, UniProt P09619)
T28 construct: unspecified tag ('tagged kinases'); purchased Ambit (KinomeScan screening)
Summary of the method: as §1

CDK3 = biological target: T29, CDK3 (Homo sapiens, UniProt Q00526)
T29 construct: purchased Ambit (KinomeScan screening)
Summary of the method: as §1

CSNK2A2 = biological target: T30, CSNK2A2 (Homo sapiens, UniProt P19784)
T30 construct: purchased Ambit (KinomeScan screening service)
Summary of the method: as §1

SRMS = biological target: T31, SRMS (Homo sapiens, UniProt Q9H3Y6)
T31 construct: tag, kind not specified; purchased Ambit (KinomeScan screening service)
Summary of the method: as §1

ALK = biological target: T32, ALK (Homo sapiens, UniProt Q9UM73)
T32 construct: purchased Ambit (KinomeScan screening)
Summary of the method: as §1

CSNK2A1 = biological target: T33, CSNK2A1 (Homo sapiens, UniProt P68400)
T33 construct: purchased Ambit (KinomeScan screening service)
Summary of the method: as §1

CAMK1D = biological target: T34, CAMK1D (Homo sapiens, UniProt Q8IU85)
T34 construct: unspecified tag ("tagged kinases"); purchased Ambit (KinomeScan screening)
Summary of the method: as §1

p38-α = biological target: T35, p38-α (Homo sapiens, UniProt Q16539)
T35 construct: purchased Ambit (KinomeScan screening service)
Summary of the method: as §1

ERK2 = biological target: T36, ERK2 (Homo sapiens, UniProt P28482)
T36 construct: unspecified tag ("tagged kinases"); purchased Ambit (KinomeScan screening service)
Summary of the method: as §1

Measured: Percent of Control Binding

T16 sequence (P22455 22-802): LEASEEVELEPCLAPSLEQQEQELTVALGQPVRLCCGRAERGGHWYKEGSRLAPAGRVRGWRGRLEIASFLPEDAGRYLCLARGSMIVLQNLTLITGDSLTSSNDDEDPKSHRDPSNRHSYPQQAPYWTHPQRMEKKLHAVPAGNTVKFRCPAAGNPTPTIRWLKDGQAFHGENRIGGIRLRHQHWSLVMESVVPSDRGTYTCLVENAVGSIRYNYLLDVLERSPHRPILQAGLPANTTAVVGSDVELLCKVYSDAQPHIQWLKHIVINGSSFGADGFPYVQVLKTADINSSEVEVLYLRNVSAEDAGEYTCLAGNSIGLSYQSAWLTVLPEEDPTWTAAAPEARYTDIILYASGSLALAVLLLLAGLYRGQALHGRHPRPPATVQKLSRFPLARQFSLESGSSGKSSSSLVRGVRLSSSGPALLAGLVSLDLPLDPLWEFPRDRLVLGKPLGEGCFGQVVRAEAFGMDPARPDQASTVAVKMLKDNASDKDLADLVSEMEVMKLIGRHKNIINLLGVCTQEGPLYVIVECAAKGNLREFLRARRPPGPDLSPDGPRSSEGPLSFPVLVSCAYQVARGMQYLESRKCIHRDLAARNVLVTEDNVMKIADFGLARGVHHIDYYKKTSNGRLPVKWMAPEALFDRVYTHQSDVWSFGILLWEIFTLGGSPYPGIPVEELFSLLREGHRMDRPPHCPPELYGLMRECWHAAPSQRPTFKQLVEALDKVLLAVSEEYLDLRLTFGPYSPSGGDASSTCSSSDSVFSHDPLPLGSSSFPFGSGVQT
T1 sequence (Q9HAZ1 whole entry): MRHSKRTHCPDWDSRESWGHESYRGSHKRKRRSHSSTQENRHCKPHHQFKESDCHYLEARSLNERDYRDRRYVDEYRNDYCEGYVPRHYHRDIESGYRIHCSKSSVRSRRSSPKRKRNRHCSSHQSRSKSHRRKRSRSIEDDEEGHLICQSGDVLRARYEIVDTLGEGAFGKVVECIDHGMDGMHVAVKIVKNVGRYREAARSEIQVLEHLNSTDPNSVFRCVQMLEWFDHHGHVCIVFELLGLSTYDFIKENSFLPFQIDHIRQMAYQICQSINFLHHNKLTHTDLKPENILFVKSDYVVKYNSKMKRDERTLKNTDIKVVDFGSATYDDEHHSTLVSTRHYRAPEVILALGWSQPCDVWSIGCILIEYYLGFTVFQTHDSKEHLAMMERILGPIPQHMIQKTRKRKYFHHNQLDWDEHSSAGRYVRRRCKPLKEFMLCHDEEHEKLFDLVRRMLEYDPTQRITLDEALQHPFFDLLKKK
T27 sequence (Q9P286 whole entry): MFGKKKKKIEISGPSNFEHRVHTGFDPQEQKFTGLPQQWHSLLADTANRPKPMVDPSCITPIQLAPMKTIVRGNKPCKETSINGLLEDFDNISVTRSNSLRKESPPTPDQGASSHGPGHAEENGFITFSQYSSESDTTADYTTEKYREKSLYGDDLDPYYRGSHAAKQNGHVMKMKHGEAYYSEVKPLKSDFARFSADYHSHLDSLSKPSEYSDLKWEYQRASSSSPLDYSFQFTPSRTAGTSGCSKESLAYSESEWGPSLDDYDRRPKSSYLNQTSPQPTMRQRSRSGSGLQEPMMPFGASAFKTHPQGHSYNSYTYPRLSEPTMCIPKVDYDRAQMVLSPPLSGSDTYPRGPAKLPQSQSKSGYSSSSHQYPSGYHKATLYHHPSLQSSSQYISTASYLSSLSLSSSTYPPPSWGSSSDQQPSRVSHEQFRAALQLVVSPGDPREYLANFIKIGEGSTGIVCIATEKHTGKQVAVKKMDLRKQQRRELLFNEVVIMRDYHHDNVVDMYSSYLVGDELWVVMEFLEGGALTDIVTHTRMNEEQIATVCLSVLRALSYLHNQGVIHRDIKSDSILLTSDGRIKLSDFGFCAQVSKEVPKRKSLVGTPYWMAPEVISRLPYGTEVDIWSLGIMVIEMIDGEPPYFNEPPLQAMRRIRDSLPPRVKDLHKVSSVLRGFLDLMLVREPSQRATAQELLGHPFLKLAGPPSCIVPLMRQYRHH
T13 sequence (P36507 whole entry): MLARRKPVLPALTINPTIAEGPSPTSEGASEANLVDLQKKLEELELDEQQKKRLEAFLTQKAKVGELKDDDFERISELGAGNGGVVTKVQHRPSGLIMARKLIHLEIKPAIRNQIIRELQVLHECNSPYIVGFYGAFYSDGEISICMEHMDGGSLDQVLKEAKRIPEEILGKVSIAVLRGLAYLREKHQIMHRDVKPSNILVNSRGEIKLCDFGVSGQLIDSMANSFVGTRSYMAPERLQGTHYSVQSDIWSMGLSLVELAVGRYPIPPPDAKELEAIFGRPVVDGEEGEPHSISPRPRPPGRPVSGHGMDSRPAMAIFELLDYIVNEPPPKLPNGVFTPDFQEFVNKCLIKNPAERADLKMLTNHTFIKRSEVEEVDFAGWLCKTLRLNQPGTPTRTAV
T15 sequence (Q8WTQ7 whole entry): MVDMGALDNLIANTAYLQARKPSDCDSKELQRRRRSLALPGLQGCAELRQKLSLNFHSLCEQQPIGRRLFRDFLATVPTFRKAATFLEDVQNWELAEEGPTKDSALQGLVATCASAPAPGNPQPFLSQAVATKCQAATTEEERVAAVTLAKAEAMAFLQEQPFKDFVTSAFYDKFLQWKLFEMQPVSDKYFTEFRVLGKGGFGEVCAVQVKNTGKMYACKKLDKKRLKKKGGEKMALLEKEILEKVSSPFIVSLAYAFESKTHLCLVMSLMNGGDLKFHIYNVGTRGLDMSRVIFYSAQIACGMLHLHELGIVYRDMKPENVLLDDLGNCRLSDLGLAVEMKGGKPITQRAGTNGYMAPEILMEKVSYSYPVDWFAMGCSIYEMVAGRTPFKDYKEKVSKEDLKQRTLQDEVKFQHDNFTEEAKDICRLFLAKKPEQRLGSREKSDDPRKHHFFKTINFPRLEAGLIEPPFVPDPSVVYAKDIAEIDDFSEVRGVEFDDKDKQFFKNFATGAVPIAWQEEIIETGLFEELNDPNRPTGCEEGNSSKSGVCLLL
T22 sequence (P08581 25-1390): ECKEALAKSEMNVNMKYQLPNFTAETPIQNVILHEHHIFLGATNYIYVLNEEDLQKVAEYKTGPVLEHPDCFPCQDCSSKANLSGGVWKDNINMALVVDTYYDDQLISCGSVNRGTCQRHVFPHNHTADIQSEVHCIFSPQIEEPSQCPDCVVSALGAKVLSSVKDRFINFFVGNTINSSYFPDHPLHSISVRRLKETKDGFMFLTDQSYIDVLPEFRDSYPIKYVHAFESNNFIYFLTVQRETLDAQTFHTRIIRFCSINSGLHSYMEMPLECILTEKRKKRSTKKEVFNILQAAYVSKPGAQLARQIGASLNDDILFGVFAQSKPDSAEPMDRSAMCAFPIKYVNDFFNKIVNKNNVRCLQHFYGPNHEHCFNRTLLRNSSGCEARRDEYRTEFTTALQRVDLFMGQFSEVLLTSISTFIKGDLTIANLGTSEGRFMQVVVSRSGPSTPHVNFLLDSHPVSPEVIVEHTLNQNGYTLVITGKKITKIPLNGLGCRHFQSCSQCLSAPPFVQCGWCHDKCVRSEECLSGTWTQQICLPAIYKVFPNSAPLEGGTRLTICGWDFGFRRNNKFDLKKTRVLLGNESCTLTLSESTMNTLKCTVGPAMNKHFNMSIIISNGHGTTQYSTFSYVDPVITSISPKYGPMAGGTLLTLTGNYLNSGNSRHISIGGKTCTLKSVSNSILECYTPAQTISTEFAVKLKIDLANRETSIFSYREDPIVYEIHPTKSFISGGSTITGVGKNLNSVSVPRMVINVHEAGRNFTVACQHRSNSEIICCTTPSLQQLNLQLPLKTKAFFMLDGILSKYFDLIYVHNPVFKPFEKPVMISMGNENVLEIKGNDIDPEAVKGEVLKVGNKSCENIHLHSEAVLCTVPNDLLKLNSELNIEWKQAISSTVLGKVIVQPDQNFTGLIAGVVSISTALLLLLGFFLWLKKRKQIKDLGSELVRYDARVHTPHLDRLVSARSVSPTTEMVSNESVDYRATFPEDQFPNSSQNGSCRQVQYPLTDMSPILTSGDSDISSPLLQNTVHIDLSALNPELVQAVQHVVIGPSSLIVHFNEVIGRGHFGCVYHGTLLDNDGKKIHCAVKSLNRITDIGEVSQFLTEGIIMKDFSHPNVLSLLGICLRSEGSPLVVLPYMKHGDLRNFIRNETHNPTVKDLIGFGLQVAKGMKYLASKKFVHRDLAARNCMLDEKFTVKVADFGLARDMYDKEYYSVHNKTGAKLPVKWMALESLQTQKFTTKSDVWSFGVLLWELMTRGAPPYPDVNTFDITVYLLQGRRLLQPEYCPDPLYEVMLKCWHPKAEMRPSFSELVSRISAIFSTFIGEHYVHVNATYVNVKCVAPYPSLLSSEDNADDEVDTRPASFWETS
T12 sequence (Q15569 whole entry): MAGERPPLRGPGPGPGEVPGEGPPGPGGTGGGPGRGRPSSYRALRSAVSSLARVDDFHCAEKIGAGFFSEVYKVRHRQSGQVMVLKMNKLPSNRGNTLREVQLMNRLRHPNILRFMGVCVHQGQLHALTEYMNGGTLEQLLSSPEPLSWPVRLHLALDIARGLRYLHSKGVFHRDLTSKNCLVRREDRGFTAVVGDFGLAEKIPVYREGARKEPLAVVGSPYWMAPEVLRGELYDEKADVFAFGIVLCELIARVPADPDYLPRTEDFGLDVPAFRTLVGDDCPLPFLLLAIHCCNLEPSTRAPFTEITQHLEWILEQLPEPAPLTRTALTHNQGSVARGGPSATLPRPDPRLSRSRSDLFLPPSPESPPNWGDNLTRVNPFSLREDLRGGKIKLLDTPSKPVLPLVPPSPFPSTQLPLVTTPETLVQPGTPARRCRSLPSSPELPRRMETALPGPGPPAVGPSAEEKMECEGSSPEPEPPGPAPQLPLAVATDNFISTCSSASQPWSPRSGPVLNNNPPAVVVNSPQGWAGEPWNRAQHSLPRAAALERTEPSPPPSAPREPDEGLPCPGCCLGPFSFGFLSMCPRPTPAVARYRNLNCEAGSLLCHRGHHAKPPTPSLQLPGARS

Cc1ccccc1-n1c(C(C)Nc2nc(N)nc3nc[nH]c23)nc2cccc(C)c2c1=O (stereo not drawn) [CAL-130]
100%: all assays above
